Where two headings read alike, the source gives them in different places.
Assays:
[1] = target: T1, α3β4 nAChR (Rattus norvegicus, UniProt P04757+P12392); assay type: cell-based
[2] = target: T1, α3β4 nAChR; conditions: change in both Kd and Bmax of [3H]epibatidine
[3] = target: rat α3β4 nAChR (Rattus norvegicus, UniProt P04757+P12392); assay type: binding
[4] = target: rat α4β2 nAChR (Rattus norvegicus, UniProt P09483+P12390); assay type: binding
[5] = target: α7 nAChR (Rattus norvegicus, UniProt Q05941); experiment: biochemical; assay type: binding
[6] = target: α4β2 nAChR (Rattus norvegicus, UniProt P09483+P12390); experiment: Functional assay; assay type: cell-based
[7] = FLIPR, alone and against epibatidine-induced Ca2+ fluorescence

T1 sequence (P12392 22-495): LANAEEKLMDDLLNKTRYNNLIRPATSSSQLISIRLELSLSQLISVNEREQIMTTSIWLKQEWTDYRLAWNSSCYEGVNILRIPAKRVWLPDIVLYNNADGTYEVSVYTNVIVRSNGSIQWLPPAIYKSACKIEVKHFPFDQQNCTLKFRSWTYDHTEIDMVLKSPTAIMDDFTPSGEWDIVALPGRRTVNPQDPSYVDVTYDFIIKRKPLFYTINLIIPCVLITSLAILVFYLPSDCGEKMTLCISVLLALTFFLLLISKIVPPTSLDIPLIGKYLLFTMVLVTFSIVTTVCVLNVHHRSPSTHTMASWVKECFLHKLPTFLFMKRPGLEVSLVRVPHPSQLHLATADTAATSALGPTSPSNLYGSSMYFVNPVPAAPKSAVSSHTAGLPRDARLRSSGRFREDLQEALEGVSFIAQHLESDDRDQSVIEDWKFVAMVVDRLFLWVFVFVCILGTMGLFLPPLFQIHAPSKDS
T1 sequence (P04757 26-499): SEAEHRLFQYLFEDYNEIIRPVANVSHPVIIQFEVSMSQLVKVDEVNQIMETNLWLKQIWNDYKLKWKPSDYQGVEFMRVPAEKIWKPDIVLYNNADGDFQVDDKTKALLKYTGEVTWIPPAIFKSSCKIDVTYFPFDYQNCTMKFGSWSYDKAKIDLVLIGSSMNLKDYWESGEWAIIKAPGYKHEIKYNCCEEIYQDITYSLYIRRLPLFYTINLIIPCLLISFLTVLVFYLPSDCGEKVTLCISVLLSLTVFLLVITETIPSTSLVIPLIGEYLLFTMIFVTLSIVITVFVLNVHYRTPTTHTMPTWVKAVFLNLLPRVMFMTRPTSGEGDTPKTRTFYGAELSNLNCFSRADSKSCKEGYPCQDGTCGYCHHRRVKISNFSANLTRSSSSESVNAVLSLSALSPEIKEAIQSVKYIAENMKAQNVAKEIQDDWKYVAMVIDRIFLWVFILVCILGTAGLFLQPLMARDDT
rat α4β2 nAChR, sequence (P09483 31-630): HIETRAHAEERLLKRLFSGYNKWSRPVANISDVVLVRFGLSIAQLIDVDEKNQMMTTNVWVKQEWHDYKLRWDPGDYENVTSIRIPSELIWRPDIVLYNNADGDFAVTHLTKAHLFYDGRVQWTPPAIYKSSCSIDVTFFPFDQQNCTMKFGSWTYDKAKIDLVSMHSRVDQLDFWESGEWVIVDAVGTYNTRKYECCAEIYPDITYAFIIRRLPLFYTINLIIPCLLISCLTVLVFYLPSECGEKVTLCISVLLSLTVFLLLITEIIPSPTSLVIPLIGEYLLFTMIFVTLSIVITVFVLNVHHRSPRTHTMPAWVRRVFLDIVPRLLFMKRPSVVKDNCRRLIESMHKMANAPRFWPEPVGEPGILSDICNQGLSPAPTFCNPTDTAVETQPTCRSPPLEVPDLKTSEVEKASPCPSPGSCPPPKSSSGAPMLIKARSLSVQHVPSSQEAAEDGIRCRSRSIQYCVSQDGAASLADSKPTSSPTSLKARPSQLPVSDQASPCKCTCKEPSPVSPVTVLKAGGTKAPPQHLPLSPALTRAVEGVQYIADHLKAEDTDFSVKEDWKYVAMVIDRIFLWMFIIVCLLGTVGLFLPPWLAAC
rat α4β2 nAChR, sequence (P12390 25-500): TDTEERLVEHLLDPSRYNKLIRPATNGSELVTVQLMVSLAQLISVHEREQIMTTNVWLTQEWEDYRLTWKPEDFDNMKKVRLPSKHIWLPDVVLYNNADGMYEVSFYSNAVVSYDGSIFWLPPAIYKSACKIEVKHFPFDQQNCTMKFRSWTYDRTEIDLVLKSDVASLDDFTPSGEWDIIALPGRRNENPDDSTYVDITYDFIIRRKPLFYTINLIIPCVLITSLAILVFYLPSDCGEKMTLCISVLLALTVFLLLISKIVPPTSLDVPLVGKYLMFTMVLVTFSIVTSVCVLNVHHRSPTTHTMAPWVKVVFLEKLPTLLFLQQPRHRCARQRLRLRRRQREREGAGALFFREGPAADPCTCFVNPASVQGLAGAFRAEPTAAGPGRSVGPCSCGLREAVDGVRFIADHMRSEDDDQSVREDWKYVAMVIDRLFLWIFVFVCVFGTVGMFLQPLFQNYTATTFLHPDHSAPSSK
rat α3β4 nAChR, sequence (P04757 26-499): as the sequence (P04757 26-499) above
rat α3β4 nAChR, sequence (P12392 22-495 limits assumed): as the sequence (P12392 22-495) above
α7 nAChR, sequence (Q05941 23-502): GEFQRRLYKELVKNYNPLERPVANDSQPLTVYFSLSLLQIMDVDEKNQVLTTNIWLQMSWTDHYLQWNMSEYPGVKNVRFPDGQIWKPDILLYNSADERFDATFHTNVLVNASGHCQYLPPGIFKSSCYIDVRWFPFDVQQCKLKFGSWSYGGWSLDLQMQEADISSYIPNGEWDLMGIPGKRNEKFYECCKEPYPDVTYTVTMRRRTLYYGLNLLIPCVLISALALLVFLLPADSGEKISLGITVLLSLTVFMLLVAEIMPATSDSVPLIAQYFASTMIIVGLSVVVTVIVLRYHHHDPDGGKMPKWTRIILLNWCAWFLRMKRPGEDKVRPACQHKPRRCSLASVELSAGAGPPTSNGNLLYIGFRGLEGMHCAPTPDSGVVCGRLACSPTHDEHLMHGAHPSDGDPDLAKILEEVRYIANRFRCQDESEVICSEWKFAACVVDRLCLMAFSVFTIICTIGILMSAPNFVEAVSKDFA
α4β2 nAChR, sequence (P09483 31-630): as the sequence (P09483 31-630) above
α4β2 nAChR, sequence (P12390 25-500): as the sequence (P12390 25-500) above

For `O=C1Cc2ccccc2N1C1CC2CCCC(C1)N2` (stereo not drawn) [Compound 6], the “functional activity at α3β4 nAChR (in words)” value [1, 7] was “antagonists” and the “potency in reversing epibatidine-induced Ca2+ fluorescence” value ([1]; FLIPR, α3β4 HEK cells) was “micromolar range”.

`Clc1ccc(C2CC3CCC2N3)cn1` (stereo not drawn) [Epibatidine, reference compound] was tested, and the “increase in intracellular Ca2+-induced fluorescence” value [1] was 1000 fold.

In the case of `O=c1cccc2n1C[C@@H]1CNC[C@H]2C1` [Cytisine], the “mode of binding with epibatidine at α3β4” value [2] is reported as “noncompetitively”.

For `CCOC(=O)N1C2C=C(c3cccnc3)CC1CCC2` (stereo not drawn) [Compound 7], the “binding affinity at α3β4 nAChR (in words)” value [3] was “complete loss of binding affinity” and the “binding affinity at α4β2 nAChR (in words)” value [4] was “complete loss of binding affinity”.

For `O=C1Cc2ccccc2N1C1CC2CC(C1)N(Cc1ccccc1)C2` (stereo not drawn) [Compound 12], the “binding affinity at α4β2 nAChR (in words)” value [4] was “completely abolished affinity”.

In the case of `C1=C(c2cccnc2)CC2CC1CN2Cc1ccccc1` (stereo not drawn) [Compound 10, 6-benzyl-3-(pyridin-3-yl)-6-azabicyclo[3.2.1]oct-2-ene], the Ki [3] is reported as 170 ± 47.9 nM, the “selectivity for α4β2 over α3β4 receptors” value [4] is reported as “about 100 fold” and the “selectivity for α4β2 over α7 nAChR” value [4] is reported as “greater than 200 fold”. For the same compound, the Ki ([4]; binding affinity (Ki) α4β2) was 1.95 ± 0.18 nM, the Ki [5] was 424 nM and the “functional activity at α3β4 nAChR (in words)” value [1] was “partial agonist”. For the same compound, the “functional activity at α4β2 nAChR (in words)” value [6] was “partial agonist”.

`CN1C2C=C(c3cccnc3)CC1CCC2` (stereo not drawn) [Compound 8, 9-methyl-3-(pyridin-3-yl)-9-azabicyclo[3.3.1]non-2-ene] was tested, and the “functional activity at α3β4 nAChR (in words)” value [1, 7] was “partial agonist activity”.

Reference: paper PMC2997436 (Journal of medicinal chemistry, 2010)
